Measurements from patent publication US9206457B2, “Utilization of pharmacological chaperones to improve manufacturing and purification of biologics” (Amicus Therapeutics, Inc., priority 2009, dated 2015).
Positions count from the first letter of the chain named. One block for each compound: values may come before it.

Assays:
[1] = biological target: T1, GCase (Homo sapiens, UniProt P04062); assay: GCase activity in conditioned media of COS-7 cells transfected with human GBA1 plasmid, 72 h; type: cell-based; settings: 72 hours expression
T1 construct: expressed in transfected cells; host or cells: COS-7
T1 sequence (P04062 40-536): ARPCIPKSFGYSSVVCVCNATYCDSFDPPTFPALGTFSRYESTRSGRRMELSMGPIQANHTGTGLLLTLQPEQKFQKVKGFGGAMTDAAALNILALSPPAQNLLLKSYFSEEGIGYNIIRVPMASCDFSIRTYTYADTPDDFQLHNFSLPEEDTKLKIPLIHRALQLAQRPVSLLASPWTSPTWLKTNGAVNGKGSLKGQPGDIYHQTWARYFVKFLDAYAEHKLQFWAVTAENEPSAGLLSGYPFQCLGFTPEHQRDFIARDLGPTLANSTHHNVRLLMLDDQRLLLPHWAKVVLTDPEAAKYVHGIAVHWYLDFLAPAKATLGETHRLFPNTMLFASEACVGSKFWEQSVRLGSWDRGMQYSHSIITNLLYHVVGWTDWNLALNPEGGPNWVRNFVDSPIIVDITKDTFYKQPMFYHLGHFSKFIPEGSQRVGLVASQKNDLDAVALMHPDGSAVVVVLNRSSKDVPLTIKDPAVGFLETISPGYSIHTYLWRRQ

[2] = biological target: T2, α-Gal A (Homo sapiens, UniProt P06280); assay: α-Gal A activity in conditioned media of COS-7 cells transfected with GLA plasmid, 72 h; type: cell-based; settings: 72 hours expression
T2 construct: expressed in transfected cells; host or cells: COS-7
T2 sequence (P06280 32-429): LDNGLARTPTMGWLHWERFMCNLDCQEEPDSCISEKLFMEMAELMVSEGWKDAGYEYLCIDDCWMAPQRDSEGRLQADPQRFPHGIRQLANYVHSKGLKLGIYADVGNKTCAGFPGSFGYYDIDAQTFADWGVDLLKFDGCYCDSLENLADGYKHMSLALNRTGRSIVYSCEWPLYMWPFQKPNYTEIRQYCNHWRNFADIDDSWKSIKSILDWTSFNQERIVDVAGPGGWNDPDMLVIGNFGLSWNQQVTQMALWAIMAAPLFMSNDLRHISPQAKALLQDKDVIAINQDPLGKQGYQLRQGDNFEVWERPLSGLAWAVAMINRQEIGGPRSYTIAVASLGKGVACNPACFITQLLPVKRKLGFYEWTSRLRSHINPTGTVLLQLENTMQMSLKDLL
Description: COS-7 cells were transiently transfected with empty vector or a plasmid coding for the α-Gal A gene (GLA). […] After 72-hours of protein expression, the conditioned media from each transfection was harvested, and the level of α-Gal A activity was assessed using the substrate […].

[3] = biological target: T3, recombinant human GAA (Myozyme®) (Homo sapiens, UniProt P10253); assay: SYPRO Orange thermal stability assay (heat denaturation) of GAA; type: binding
T3 construct: purchased Genzyme Corp
Text: The thermal stability assay utilizes heat to induce protein denaturation, which is monitored using a SYPRO Orange dye that fluoresces upon binding to hydrophobic amino acids (which are not exposed in a folded protein).
FIG. 3 depicts the results of a thermal stability assay that utilizes heat to induce protein denaturation, which is monitored using a SYPRO Orange dye that fluoresces upon binding to hydrophobic amino acids (which are not exposed in a folded protein). […] The experiment was conducted at pH 7.4.
Denaturation is monitored using a SYPRO Orange dye that fluoresces upon binding to hydrophobic amino acids (which are not exposed in a folded protein).
The thermal stability was performed at pH 7.4 for two formulations, which corresponds to the pH of the ER.
A thermal stability experiment as generally described in Example 1 was performed on four compositions: […]

[4] = biological target: T4, acid β-glucosidase (GCase; Cerezyme®) (Homo sapiens, UniProt P04062, R534H); assay: SYPRO Orange thermal stability assay (heat denaturation) of GCase; type: binding
T4 construct: purchased Genzyme Corp
T4 sequence (P04062 40-536 R534H): T1 sequence (P04062 40-536) with R495H
Description: FIG. 4 depicts the results of a thermal stability assay that utilizes heat to induce protein denaturation, which is monitored using a SYPRO Orange dye that fluoresces upon binding to hydrophobic amino acids (which are not exposed in a folded protein). Isofagomine increases acid β-glucosidase thermostability as evident by increases in melting temperature in a dose-dependent manner. The experiment was conducted at pH 7.4.
FIG. 8 depicts the stability of recombinant human GCase (Cerazyme®, Genzyme Corp.) at neutral pH (7.4) or acidic pH (5.2) in the presence or absence of 10 μM of IFG as determined in a thermal stability assay. The thermal stability assay utilizes heat to induce protein denaturation, which is monitored using a SYPRO Orange dye that fluoresces upon binding to hydrophobic amino acids (which are not exposed in a folded protein).
A thermal stability experiment as generally described in Example 1 was performed on three compositions of GCase (Cerezyme®):
A thermal stability experiment as generally described in Examples 1 and 4 was performed on three compositions of GCase (Cerezyme®):
Protein denaturation was monitored using SYPRO Orange dye which fluoresces when bound to exposed hydrophobic amino acids.

[5] = biological target: T4, acid β-glucosidase (GCase; Cerezyme®); assay: SYPRO Orange GCase unfolding over time at 37° C.; type: binding
Description: FIG. 5 depicts a SYPRO Orange thermal stability experiment to monitor the unfolding of acid β-glucosidase (GCase; Cerezyme®). GCase (2 μM) was incubated in pH 7.4 or pH 5.2 buffer with or without 10 μM IFG at 37° C. and protein unfolding was monitored every hour over 24 hours.
FIG. 9 depicts a SYPRO Orange thermal stability experiment to monitor the unfolding of acid β-glucosidase (GCase; Cerezyme®). GCase was incubated in pH 7.4 or pH 5.2 buffer with or without 10 μM or 100 μM IFG at 37° C., and protein unfolding was monitored every hour over 24 hours.
FIG. 15 depicts that addition of 50 μM IFG at 3 or 6 hours after incubation of GCase (Cerezyme®) in neutral (pH 7.4) buffer at 37° C. prevents further denaturation of the enzyme as measured by SYPRO dye fluorescence.
In this thermal stability experiment, the concentration of IFG was 10 μM in formulation (3).
In this thermal stability experiment, the concentration of IFG was 0, 10 μM, or 100 μM as described above.
The stability of α-Gal A, α-Glucosidase (GAA), and GCase (Cerezyme®) at 37° C. in neutral (pH 7.4) buffer was measured using the SYPRO Orange for 3, 6 or 24 hours.

[6] = biological target: T5, GCase (Cerezyme®) (Homo sapiens, UniProt P04062, R534H); assay: GCase activity in human plasma at 37° C. (4-MUG); type: in vitro ADME; settings: IFG 3 μM, 30 μM, 100 μM, over 4 hours
T5 construct: purchased Genzyme Corp
T5 sequence (P04062 40-536 R534H): T1 sequence (P04062 40-536) with R495H
Description: FIG. 10 depicts the effects of IFG on recombinant human GCase (GCase; Cerezyme®, Genzyme Corp.) activity in human plasma at 37° C. GCase activity was evaluated to assess the ability of an ASSC to prolong the activity of GCase in human plasma over time. Cerezyme (0.5 μM) was incubated in human plasma with increasing concentrations of IFG (3 μM, 30 μM, or 100 μM) at 37° C. over 4 hours. Samples were assayed for GCase enzyme activity using 4-MU-β-glucose at 0.25, 0.5, 1, 2 and 4 hours and the residual GCase activity was expressed as % of initial activity.
The activity of GCase (0.5 μM; Cerazyme®) at 37° C. in human plasma was assessed for increasing concentrations of IFG (3 μM, 30 μM, and 100 μM) as a function time using the substrate 4-MUG.

[7] = biological target: T5, GCase (Cerezyme®); assay: GCase activity over time in neutral or acidic buffer at 37° C. (4-MUG); type: biochemical; settings: 1 μM IFG, 10 nM GCase, pH 7.4, 37° C.
[8] = biological target: T6, acid β-glucosidase (Homo sapiens, UniProt P04062); settings: 100 μM chaperone, 48 hours expression, COS-7
T6 sequence (P04062 40-536): T1 sequence (P04062 40-536)

[9] = biological target: T7, α-Gal A (Fabrazyme®) (Homo sapiens, UniProt P06280); assay: SYPRO Orange thermal stability assay (heat denaturation) of α-Gal A; type: binding; settings: 10 and 100 μM DGJ, pH 7.4
T7 construct: purchased
T7 sequence (P06280 32-429): T2 sequence (P06280 32-429)

[10] = biological target: T2, α-Gal A; assay: SYPRO Orange α-Gal A denaturation over time at 37° C.; type: binding; settings: 50 μM DGJ added at 3 or 6 hours, pH 7.4, 37° C.
[11] = biological target: T2, α-Gal A; assay: α-Gal A activity in conditioned media of transiently transfected COS-7 cells, 48 h, concanavalin A capture; type: cell-based; settings: 100 μM chaperone, 48 hours expression
[12] = biological target: T3, recombinant human GAA (Myozyme®); assay: Residual GAA enzyme activity (4-MU-α-glucose) on extended incubation at 37° C.; type: biochemical; settings: 50 μM 1-DNJ, pH 7.4, 37° C., over 24 hours
Description: FIG. 2A depicts the effects of 1-DNJ-HCl on recombinant human GAA (rhGAA; Myozyme®, Genzyme Corp.) activity at neutral pH (7.4) or lysosomal pH (5.2) at 37° C. GAA activity was evaluated to assess the ability of an ASSC to prolong the activity of rhGAA over time. Myozyme (45 nM) was incubated in pH 7.4 or pH 5.2 buffer with or without 50 μM 1-DNJ at 37° C. over 24 hours. Samples were assayed for GAA enzyme activity using 4-MU-α-glucose at 0, 3, 6 and 24 hours and the residual GAA activity was expressed as % of initial activity.
Residual GAA activity was determined for four formulations:
Activity was measured, based on the % of initial activity (t=0) over 24 hours. Samples were assayed for GAA enzyme activity based on the hydrolysis of the fluorogenic substrate 4-MU-α-glucose at 0, 3, 6 and 24 hours. The GAA activity was expressed as % of initial activity, i.e. residual activity.

[13] = biological target: T3, recombinant human GAA (Myozyme®); assay: SYPRO Orange GAA unfolding over time at 37° C.; type: binding; settings: 50 μM DNJ added at 3 or 6 hours, pH 7.4, 37° C.
[14] = biological target: T8, α-Glucosidase (GAA) (Homo sapiens, UniProt P10253); assay: GAA activity in conditioned media of COS-7 cells transfected with human GAA plasmid, 72 h; type: cell-based; settings: 72 hours expression
T8 construct: expressed in transfected cells; host or cells: COS-7

Compound: O[C@H]1[C@H](O)CNC[C@@H]1C(F)F [AT3375]
GCase activity recovered from conditioned media [1]: increased the activity
α-Gal A activity from conditioned media [2]: increased slightly

Compound: Myozyme: recombinant human GAA (Myozyme®, Genzyme Corp.)
Stability of Myozyme at lysosomal versus neutral pH (thermal stability assay) ([3]; pH 5.2 versus pH 7.4, no chaperone): much more stable at lysosomal pH (5.2) than at neutral pH (7.4)

Stability of recombinant human GCase upon thermal challenge ([4]; 10 μM IFG, pH 7.4 (Example 8)): significantly increases stability
GCase unfolding ([5]; 10 μM IFG, pH 7.4, 37° C., over 24 hours (Example 5)): prevented GCase unfolding
Stability of GCase (unfolding over time) ([5]; 10 μM and 100 μM IFG, neutral pH, 37° C. (Example 9)): significantly increases the stability
Further denaturation of GCase ([5]; 50 μM IFG added at 3 or 6 hours, pH 7.4, 37° C.): prevented further denaturation
Stability of GCase activity over time [7]: significantly increases the stability
GCase activity recovered from conditioned media [1]: increased the activity
Acid β-glucosidase activity from conditioned media [8]: increased the activities
Compound: OC[C@H]1CNC[C@@H](O)[C@@H]1O [IFG, (3R,4R,5R)-5-(hydroxymethyl)-3,4-piperidinediol]
GCase thermal stability (melting temperature) ([4]; 10 and 100 μM IFG, pH 7.4): increases GCase thermal stability in a dose-dependent manner
Stability of GCase activity in human plasma [6]: significantly increases the stability of GCase and prevents enzyme inactivation

Further denaturation of α-Gal A [10]: prevented further denaturation
α-Gal A activity from conditioned media [11]: increased the activities
α-Gal A activity from conditioned media [2]: increased slightly
Compound: OC[C@H]1NC[C@H](O)[C@@H](O)[C@H]1O [DGJ, 1-deoxygalactonorjirimycin]
α-Gal A thermal stability (melting temperature) [9]: increases α-Gal A thermal stability in a dose-dependent manner

GAA thermostability (melting temperature) ([3]; 1, 10, 100 μM 1-DNJ-HCl, pH 7.4, dose-dependent): increases GAA thermostability
Further denaturation of GAA [13]: prevented further denaturation
GAA activity recovered from conditioned media [14]: little effect
Compound: OC[C@H]1NC[C@H](O)[C@@H](O)[C@@H]1O [DNJ, 1-deoxynorjirimycin]
GAA thermal stability (heat required to denature) ([3]; 100 μM DNJ, pH 7.4, versus formulation without ASSC): required significantly more heat to denature
Effect on loss of GAA enzyme activity [12]: ameliorates the loss of GAA enzyme activity
